Data: patent US7855076B2, “Use of discoidin domain receptor 1 (DDR1) and agents that affect the DDR1/collagen pathway” (The United States of America as represented by the …, priority 2002, dated 2010)

Legend:
DDR1 protein = DDR1 protein expression in leukocytes by immunoprecipitation and Western blotting; assay type: cell-based, human; details: PBMC; TNF-α 5 ng/ml or GM-CSF 10 ng/ml, 36 hours
Method: For Western blot analysis, cell lysates were prepared from freshly isolated PBMC, PBMC incubated overnight in RPMI 1640 containing 10% FCS, and MCF-7 cells. Cells were lysed on ice for 20 minutes in a buffer containing 50 mM Hepes, 150 mM NaCl, 1% Triton X-100, 10% glycerol, 10 mM NaF, 1 mM ethylenediamine tetraacetic acid, […], 1 mg/ml leupeptin, 1 mM phenylmethylsulfonyl fluoride, 1 mg/ml aprotinin, and 1 mg/ml pepstatin A. The lysates were spun, and the supernatants were collected. The samples were incubated with approximately 20 μl packed volume of PGS for 1 hour at 4° C. After centrifugation, supernatants were collected, mixed with 1 μg/ml normal rabbit IgG or polyclonal anti-human DDR1 IgG, and incubated for 1 hour at 4° C. PGS (20 μl) was then added and incubated for another 1 hour. IgG-coupled PGS was washed with the buffer containing 50 mM Hepes, 150 mM NaCl, 0.1% Triton X-100, 10% glycerol buffer three times, and 20 μl double-strength sample buffer (20% glycerol, 6% sodium dodecylsulfate (SDS), 10% 2-mercaptoethanol) was added. The samples were boiled for 10, minutes. Eluted proteins were analyzed on 7.5% polyacrylamide gels by SDS polyacrylamide gel electrophoresis (SDS-PAGE) and transferred electrophoretically to nitrocellulose membranes (Amersham, Arlington Heights, Ill.) at 200 mA for 2 hours by a semi-dry system. The membranes were incubated with polyclonal anti-human DDR1 or anti-phosphotyrosine IgG, followed by sheep anti-mouse IgG coupled with horseradish peroxidase (Amersham). Peroxidase activity was visualized by the Enhanced Chemiluminescence Detection System (Amersham).
There was no detectable DDR1 protein in freshly isolated PBMC. DDR1 protein was detected clearly after overnight incubation in RPMI 1640 containing 10% FCS. In order to study the kinetics of DDR1 protein expression, PBMC were incubated with or withour addition of TNF-α (5 ng/ml), or GM-CSF (10 ng/ml) for 36 hours and cell lysates were prepared. Cell lysates were subjected to immunoprecipitation with anti-DDR1 IgG or control IgG. […]

p38 MAP kinase = assay: Phosphorylation of p38 MAP kinase in PMA-treated THP-1 cells, Western blotting; assay type: cell-based, human
Method: Parental, mock, DDR1a- or DDR1b-overexpressing THP-1 cells were plated at 5×10^6/ml on uncoated tissue culture plates and stimulated with PMA (10 nM) for 24 hours, and then starved in RMPI 1640 without FCS for 10 hours. Subsequently cells were washed three times with PBS, and then incubated in the presence of 50 μg/ml collagen type I for various times.
Ten million cells were lysed on ice for 20 minutes in a buffer containing 50 mM NaCl, 20 mM Tris-HCl, 50 mM sodium fluoride, 30 mM Na4P2O7, 5 mM EGTA, 3 mM sodium orthovanadate, 1% Triton X-100, 1 mg/ml leupeptin, 1 mM PMSF, 1 mg/ml aprotinin, 1 mg/ml pepstatinA and 100 μM sodium orthovanadate treated with H2O2. A lysis buffer containing 150 mM NaCl, 50 mM HEPES, 1% Triton-X 10% glycerol, 1 mM sodium fluoride, 1 mM EDTA, 2 mM sodium orthovanadate, 1 mg/ml leupeptin, 1 mM PMSF, 1 mg/ml aprotinin, 1 mg/ml pepstatinA and 100 μM sodium orthovanadate treated with H2O2, was also used for immunoprecipitation with anti-Shc Ab. The lysates were spun in a microcentrifuge for 20 minutes and the supernatants were collected. […]
Eluted proteins were analyzed on 8% polyacrylamide gels by SDS-PAGE and transferred electrophoretically to nitrocellulose membranes at 150 mA for 1 hour by a semi-dry system. […] To detect phosphorylated or nonphosphorylated p38 MAP kinase or ATF-2, 20 μl of cell lysates were directly mixed with 20 μl of sample buffer and then analyzed.
Downstream signaling molecules that may play a role in the up-regulation of HLA-DR in collagen-activated PMA-treated DDR1b-overexpressing cells were identified in the following manner. […] Phosphorylation of p38 MAP kinase was first detected 30 minutes after collagen activation of DDR1b-overexpressing cells and the level of phosphorylation increased thereafter. […] Phosphorylation of p38 MAP kinase was not detected in DDR1a-overexpressing cells up to 120 minutes. […] Phosphorylation of other members of the MAP kinase family, ERK1, ERK2, and JNK could not be detected in collagen-activated PMA-treated DDR1b-overexpressing cells. […]

Row | Substance | level of DDR1 protein expression (DDR1 protein) | phosphorylation of p38 MAP kinase (p38 MAP kinase; DDR1a-overexpressing cells, up to 120 minutes) | time phosphorylation of p38 MAP kinase first detected (p38 MAP kinase; DDR1b-overexpressing cells) [min]
1 | TNF-α | increased |  | 
2 | collagen |  | not detected | 30
